Results on 2 molecules are retold here after patent publication US7476383B2, “Antibody selective for DR4 and uses thereof” (The UAB Research Foundation, priority 2000, dated 2009).

Test [1] has as its system 2LMP human breast cancer xenografts. Kind of test: 2LMP breast cancer xenografts in athymic nude mice. The test is classed as in vivo. As to the method:
Nude mice were inoculated s.c. with the human breast cancer cell line, 2LMP. Treatment with i.p. doses of 200 μg of 2E12 occurred on days 7, 10, 14, 17, 21, and 24 after tumor cell injection. Animals received i.v. adriamycin (doxorubicin) (6 mg/kg) on days 8, 12, and 16.
Athymic nude mice were injected s.c. with 3×10^7 2LMP cells. […] The growth of tumors was monitored over time. […] Tumor size and regression rates were determined.
Data from 6 independent experiments were analyzed by individual experiment. Treatment combinations were compared with respect to in vivo anti-tumor efficacy, i.e., inhibition of tumor growth, which was measured as three endpoints; extension of tumor doubling times, percentage of tumor regressions, and growth rates over time. The actual number of days at which the tumor doubled in surface area (product of two diameters) relative to baseline on day 7 after tumor cell injection was used in the doubling time analysis. The nonparametric Kruskal-Wallis test was used for median tumor doubling time comparisons between treatments. Fisher's exact test was used to compare the proportions of tumor regressions and relapse-free regressions across treatment groups. To determine if any combination therapy produced significant synergistic inhibition of tumor growth, i.e., more than additive, the growth curves from the serial area measurements were compared using a linear mixed model approach over the first 3 weeks after start of therapy (Lindsey, J. K. Models for Repeated Measurements, pp. 100-142, Oxford, 1993). To test for synergistic effects of the combination therapies, an interaction term was included in the model. If the interaction term was significant and the effect was inhibition of growth at a rate greater than additive then the interaction was considered synergistic.
A total of 166 animals, 10 treatment groups, and 6 independent experiments were included in the aggregate analysis. Treatment combinations were compared with respect to in vivo anti-tumor efficacy. The median tumor doubling times were analyzed using the Kruskal-Wallis test and Fisher's exact test was used to compare the proportions of tumor regressions and relapse-free regressions across treatment groups.

Another test relates to 2LMP xenografts. The test is described as follows: TUNEL analysis of apoptosis in xenografts. Particulars: day 14; untreated 1%. It is filed as in vivo, athymic nude mice. As to the method: One group of mice was untreated. The xeno grafts were dissected for the study of apoptosis on day 14 after tumor cell injection. The reason for the substantial reduction in treatment intensity compared to our standard treatment protocol was to allow adequate tumor tissue for analysis on day 14. Tunel assay for apoptosis in tumor xenografts was performed as follows. Five-micron paraffin sections of tissue were mounted on Superfrost/Plus slides and heated at 58° C. for 1 h. Tissue sections were deparaffinized in three changes of xylene and rehydrated with one change of absolute ethanol, 95% ethanol, and 70% ethanol, each in 5-min increments. Then, the sections were placed in Tris-buffered saline (0.5M Tris base, 0.15 M NaCl, 0.0002% Triton X-100, pH 7.6). Apoptotic nuclei were detected using an Apop Tag Peroxidase kit (Intergen, Purchase, N.Y.). Proteinase K (20 μg/ml in distilled deionized H2O) was added to the tissue specimens and incubated at room temperature for 15 min. Endogenous peroxidases were quenched with an aqueous solution of 3% hydrogen peroxide for 5 min. […] Approximately 10 random fields were evaluated for percentage of Tunel stained and percentage of intensely stained apoptotic bodies throughout the tissue.

The subject of test [2] is Human prostate cancer cell line PC-3. The test is described as follows: Combination study with Paclitaxel, XTT. The test is classed as cell-based. Conditions: 24 h. As to the method: Human prostate cancer cell line PC-3 is obtained from American Tissue Culture Collection (ATCC) and maintained in F-12K Nutrient Mixture (21127-022, Gibco BRL) containing 10% fetal bovine serum (FBS, Hyclone), 1% L-Glutamine-200 mM (25030-149, Gibco BRL) and 0.5% Penicillin Streptomycin Solution (P-7539, Sigma). RPMI1640 medium (MED-008, IWAKI) supplemented with 10% FBS and 0.5% Penicillin Streptomycin Solution is used in the following experiment. Exponentially growing PC-3 cells are collected by trypsinization and washed twice with fresh medium. The cells are then counted, resuspended in fresh medium at a density of 5×10^4 cells/ml and distributed in triplicate into flat-bottomed 96 well plates (3598, Coming-Coster) in a total volume of 100 μl/well one day before the start of the experiment. A representative anti-cancer drug, Paclitaxel (169-18611, Wako) dissolved in dimethylsulfoxide (10 mg/ml) is diluted in fresh medium and then added to the 96-well plates containing the cells at 50 μl/well. The final concentrations of dimethylsulfoxide are less than 0.1%. […] After incubation for a further 24 hr, 50 μl of Minimum Essential Medium (11095-098, Gibco BRL) containing 1 mg/ml of XTT and […] of PMS is added to the wells and the plates are incubated for 6 hr. OD450 is then measured by SPECTRA MAX 250 (Molecular Devices) and the cell viability is calculated as follows.
On the technique in general: Tetrazolium assays rely on reduction of a dye to a coloured formazan, in cell work by metabolically active cells.

In the next test the test system is Jurkat cells. The test is described as follows: Apoptosis-inducing activity of humanized antibody, XTT. It is filed as cell-based, human. Conditions: 12 hours. As to the method: Jurkat cells cultured in RPM11640 medium with 10% FCS (Gibco BRL) at 37° C. for 3 days in the presence of 5% CO2 are dispensed into each well of a 96-well microplate (Sumitomo Bakelite) at 50 μl per well. […] Each of the solutions of the expression products thus adjusted to 100 ng/ml is used to produce serial dilutions by repeating serial 2-fold dilution with RPM1640 containing 10% FCS. […] After reacting at 37° C. for 12 hours, 50 μl of 25 μM PMS (phenazine methosulfate; Sigma Chemical Co.) containing 1 mg/ml XTT (2,3-bis[2-methoxy-4-nitro-5-sulfophenyl]-2H-tetrazolium-5-carboxyaniride inner salt; Sigma Chemical Co.) is added (final concentrations of 250 μg/ml for XTT and 5 μM for PMS). After incubating for 3 hours, the absorbance at 450 nm of each well is measured to calculate the cell viability by using the reduction ability of mitochondria as the index.
The viability of the cells in each well is calculated according to the following formula: Viability (%)=100×(a−b)/(c−b) wherein “a” is the measurement of a test well, “b” is the measurement of a well with no cells, and “c” is the measurement of a well with no antibody added.
Jurkat cells cultured in RPMI1640 medium with 10% FCS (Gibco BRL) at 37° C. for 3 days in the presence of 5% CO2 are dispensed into each well of a 96-well microplate (Sumitomo Bakelite) at 50 μl per well. […]

Where [3] appears, read: aggregate, number of animals (%).

Some results are limits rather than exact numbers.

What is called viability is a read-out of living cells in per cent, often relative to untreated cells. Take `CC(=O)O[C@H]1C(=O)[C@@]2(C)[C@H]([C@H](OC(=O)c3ccccc3)[C@]3(O)C[C@H](OC(=O)[C@H](O)[C@@H](NC(=O)c4ccccc4)c4ccccc4)C(C)=C1C3(C)C)[C@]1(OC(C)=O)CO[C@@H]1C[C@@H]2O` [Paclitaxel]: in test [1] (setting [3]), the “Complete Regressions No relapse (%)” value was found to be 0 and the “Complete Regressions Total (%)” value was 0. Also, the “complete regressions of tumor” value in test [1] (individual experiments (FIG. 25-27), animals) is listed as “none”. Besides, the “intense TUNEL stained cells” value in the test on 2LMP xenografts stood at 2%. For the same molecule, the viability at 0.0001 µg/mL in test [2] was > 40%.

B1: humanized TRA-8: humanized TRA-8, cotransfection of pHB14-1 and pSR/M2-1 (H2 type heavy chain, LM2 light chain) (antibody)
VH: EVMLVESGGGLVQPGGSLRLSCAASGFTFSSYVMSWVRQAPGKGLEWVATISSGGSYTYYPDSVKGRFTISRDNAKNTLYLQMNSLRAEDTAVYYCARRGDSMITTDYWGQGTLVTVSS
light: DIVMTQSPSSLSASVGDRVTITCKASQDVGTAVAWYQQKPGKAPKLLIYWASTRHTGVPSRFSGSGSGTDFTLTISSLQPEDFATYYCQQYSSYRTFGQGTKVEIKRTVAAPSVFIFPPSDEQLKSGTASVVCLLNNFYPREAKVQWKVDNALQSGNSQESVTEQDSKDSTYSLSSTLTLSKADYEKHKVYACEVTHQGLSSPVTKSFNRGEC
For the molecule B1, the apoptosis-inducing activity entry in the test with Jurkat cells is given as “induce apoptosis”.
